pEC50: −log10 of the molar value. Calls of active or inactive are those of the source. No cut-off for these calls is given here.
Key:
[1] = target: T1, Free fatty acid receptor 1 (Homo sapiens, UniProt O14842); assay: Agonist activity at human GPR40 transfected in CHO cells by calcium flux assay relative to TAK-875; format: functional, cell-based
[2] = target: T1, Free fatty acid receptor 1; assay: Agonist activity at human GPR40 transfected in CHO cells by calcium flux assay; format: functional, cell-based
Mus musculus [3] = assay: Antidiabetic activity in high fat feasted ICR mouse assessed as reduction of blood glucose excursion at 50 mg/kg, po administered 15 mins prior to dextrose challenge measured for 120 mins by OGTT; format: functional, organism-based; parameters: dose 50 mg/kg
Mus musculus [4] = assay: Antidiabetic activity in high fat feasted ICR mouse assessed as inhibition of blood glucose excursion at 50 mg/kg, po administered 15 mins prior to dextrose challenge measured for 120 mins by OGTT relative to control; format: functional
[5] = AUC in rat at 5 mg/kg, po; format: ADME, organism-based; parameters: dose 5 mg/kg, route oral; conditions: plasma
Rattus norvegicus = assay: Volume of distribution in rat at 5 mg/kg, po; format: ADME, organism-based; parameters: dose 5 mg/kg, route oral; conditions: in vivo
[6] = Half life in rat at 5 mg/kg, po; format: ADME, organism-based; parameters: dose 5 mg/kg, route oral; conditions: in vivo
[7] = Cmax in rat at 5 mg/kg, po; format: ADME, organism-based; parameters: dose 5 mg/kg, route oral; conditions: in vivo
[8] = target: Free fatty acid receptor 1 (Rattus norvegicus) (UniProt Q8K3T4); assay: Agonist activity at GPR40 in rat INS-1 cells assessed as glucose-stimulated insulin secretion relative to TAK-875; format: cell-based; conditions: INS1
[9] = Plasma clearance in rat at 5 mg/kg, po; format: ADME, organism-based; parameters: dose 5 mg/kg, route oral

T1 sequence (O14842 whole entry): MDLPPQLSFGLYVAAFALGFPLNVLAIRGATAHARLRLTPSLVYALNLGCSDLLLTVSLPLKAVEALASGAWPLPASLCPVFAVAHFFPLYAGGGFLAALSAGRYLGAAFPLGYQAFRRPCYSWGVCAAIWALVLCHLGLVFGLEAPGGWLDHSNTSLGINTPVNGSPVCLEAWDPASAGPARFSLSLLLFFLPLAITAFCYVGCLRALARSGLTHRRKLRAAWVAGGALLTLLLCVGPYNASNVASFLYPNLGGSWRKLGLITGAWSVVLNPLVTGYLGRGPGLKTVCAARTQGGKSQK
Sequence of Free fatty acid receptor 1 (Rattus norvegicus) (Q8K3T4 whole entry): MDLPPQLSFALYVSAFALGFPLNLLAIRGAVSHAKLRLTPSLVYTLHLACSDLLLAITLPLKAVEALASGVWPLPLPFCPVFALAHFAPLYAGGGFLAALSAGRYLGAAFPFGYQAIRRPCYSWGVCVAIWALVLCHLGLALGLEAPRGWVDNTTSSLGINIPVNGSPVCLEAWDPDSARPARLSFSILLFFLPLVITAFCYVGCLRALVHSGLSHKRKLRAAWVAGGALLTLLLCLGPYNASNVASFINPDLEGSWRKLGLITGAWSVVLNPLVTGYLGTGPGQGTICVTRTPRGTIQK

Structure (SMILES)	Emax [1]	pEC50 [2]	also measured
O=C(O)C[C@@H]1COc2cc3c(cc21)OCC(c1cc(F)cc(C(F)(F)F)c1)O3 (stereo partly specified)	79%	7.20	–
O=C(O)C[C@@H]1COc2cc3c(cc21)OCC(c1cccc(C2CC2)c1)O3 (stereo partly specified)	66%	7.44	–
O=C(O)C[C@@H]1COc2cc3c(cc21)OC[C@H](c1cccc(C(F)(F)F)c1)O3	55.6%	7.52	–
O=C(O)C[C@@H]1COc2cc3c(cc21)OCC(c1cccc(Br)c1)O3 (stereo partly specified)	89%	7.26	–
O=C(O)C[C@@H]1COc2cc3c(cc21)OC[C@H](c1cccc(Br)c1)O3	105%	6.95	–
O=C(O)C[C@@H]1COc2cc3c(cc21)OC[C@H](c1ccc(Cl)c(Cl)c1)O3	61%	6.72	–
O=C(O)C[C@@H]1COc2cc3c(cc21)OCC(c1cccc(-c2ccc(F)cc2Cl)c1)O3 (stereo partly specified)	103%	7.13	–
O=C(O)C[C@@H]1COc2cc3c(cc21)OCC(c1ccc(Br)cc1)O3 (stereo partly specified)	38%	< 5.00	–
Cc1cc(OCCCS(C)(=O)=O)ccc1-c1cccc(C2COc3cc4c(cc3O2)OC[C@H]4CC(=O)O)c1 (stereo partly specified)	53%	6.91	–
Cc1ccccc1-c1cccc([C@@H]2COc3cc4c(cc3O2)OC[C@H]4CC(=O)O)c1	76%	7.41	–
CS(=O)(=O)CCCOc1ccc(-c2cc(C3COc4cc5c(cc4O3)OC[C@H]5CC(=O)O)ccc2F)c(Cl)c1 (stereo partly specified)	66%	6.90	–
Cc1cc(OCCCS(C)(=O)=O)cc(C)c1-c1ccc(F)c([C@H]2COc3cc4c(cc3O2)OC[C@H]4CC(=O)O)c1	83%	7.17	Activity (Mus musculus [3]): Active
O=C(O)C[C@@H]1COc2cc3c(cc21)OC[C@@H](c1cccc(-c2ccccc2Cl)c1)O3	99%	7.18	–
O=C(O)C[C@@H]1COc2cc3c(cc21)OCC(c1cc(F)cc(Br)c1)O3 (stereo partly specified)	38%	6.98	–
CS(=O)(=O)CCCOc1ccc(-c2cccc([C@@H]3COc4cc5c(cc4O3)OC[C@H]5CC(=O)O)c2)c(Cl)c1	89%	7.02	–
O=C(O)C[C@@H]1COc2cc3c(cc21)OC[C@@H](c1ccc(Cl)c(Cl)c1)O3	129%	7.80	inhibition in vivo at 50 mg/kg (Mus musculus [4]): 4.9%; AUC [5]: 337 µg·h/mL; Vd (Rattus norvegicus): 0.25 L/kg; half-life [6]: 13.3 h; Cmax [7]: 18900 ng/mL; Emax [8]: 46.8%; CL/F [9]: 0.167 mL/min/kg
Cc1cc(F)ccc1-c1cccc(C2COc3cc4c(cc3O2)OC[C@H]4CC(=O)O)c1 (stereo partly specified)	77%	7.44	–
CS(=O)(=O)CCCOc1ccc(-c2ccc(F)c(C3COc4cc5c(cc4O3)OC[C@H]5CC(=O)O)c2)c(Cl)c1 (stereo partly specified)	102%	7.25	–
Cc1cccc(C)c1-c1cccc([C@@H]2COc3cc4c(cc3O2)OC[C@H]4CC(=O)O)c1	85%	7.28	–
